Assay results taken from patent publication US20250368666A1, “INDAZOLE COMPOUNDS” (TYRA BIOSCIENCES, INC., priority 2022, published 2025).
pIC50: −log10 of the molar value.

Tests used:
[1] = system: HuH7 cell line (FGF19 amplification); experiment: Cancer cell line cell viability assay (Cell Titer-Glo), 120 hr; assay type: cell-based; conditions: Homo sapiens, Huh-7
How it was run: (§1)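 RPMI1640/10% FBS for RT112/84 and MDA-MB-453; IMDM/20% FBS for KG-1; IMDM/10% FBS for HuH7. Cells plated overnight, dosed from 3 μM in 4-fold, 9-point series, incubated at 37° C, then lysed with Cell Titer-Glo 2.0; IC50 by sigmoidal fit.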

[2] = system: KG-1 cell line (FGFR 1-fusion); experiment: Cancer cell line cell viability assay (Cell Titer-Glo), 72 hr; assay type: cell-based; conditions: Homo sapiens, KG-1, KG-1 cell line (FGFR1-fusion)
How it was run: as §1

[3] = system: KATO-III cell line (FGFR2 amplification); experiment: as above; assay type: cell-based; conditions: Homo sapiens, KATO III
How it was run: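 Intracellular ATP was measured by Cell Titer-Glo 2.0 luminescence after cells were incubated with compound dilutions (top 3 μM, 4-fold, 9 doses). Values were expressed relative to DMSO-treated cells and IC50 was calculated from a variable-slope dose-response curve.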

[4] = system: RT112/84 cell line (FGFR3-fusion); experiment: as above; assay type: cell-based; conditions: Homo sapiens, RT112/84, RT112/84 cell line (FGFR3-fusion)
How it was run: as §1

FGFR3 = biological target: T1, FGFR3 (Homo sapiens, UniProt P22607); experiment: Kinase binding assay (kinase-tagged T7 phage, affinity beads, qPCR), Kd; conditions: read-out: FGFR3 (Kd nM)
T1 construct: made in house; host or cells: E. coli (BL21-derived), T7 phage
T1 sequence (P22607 23-806): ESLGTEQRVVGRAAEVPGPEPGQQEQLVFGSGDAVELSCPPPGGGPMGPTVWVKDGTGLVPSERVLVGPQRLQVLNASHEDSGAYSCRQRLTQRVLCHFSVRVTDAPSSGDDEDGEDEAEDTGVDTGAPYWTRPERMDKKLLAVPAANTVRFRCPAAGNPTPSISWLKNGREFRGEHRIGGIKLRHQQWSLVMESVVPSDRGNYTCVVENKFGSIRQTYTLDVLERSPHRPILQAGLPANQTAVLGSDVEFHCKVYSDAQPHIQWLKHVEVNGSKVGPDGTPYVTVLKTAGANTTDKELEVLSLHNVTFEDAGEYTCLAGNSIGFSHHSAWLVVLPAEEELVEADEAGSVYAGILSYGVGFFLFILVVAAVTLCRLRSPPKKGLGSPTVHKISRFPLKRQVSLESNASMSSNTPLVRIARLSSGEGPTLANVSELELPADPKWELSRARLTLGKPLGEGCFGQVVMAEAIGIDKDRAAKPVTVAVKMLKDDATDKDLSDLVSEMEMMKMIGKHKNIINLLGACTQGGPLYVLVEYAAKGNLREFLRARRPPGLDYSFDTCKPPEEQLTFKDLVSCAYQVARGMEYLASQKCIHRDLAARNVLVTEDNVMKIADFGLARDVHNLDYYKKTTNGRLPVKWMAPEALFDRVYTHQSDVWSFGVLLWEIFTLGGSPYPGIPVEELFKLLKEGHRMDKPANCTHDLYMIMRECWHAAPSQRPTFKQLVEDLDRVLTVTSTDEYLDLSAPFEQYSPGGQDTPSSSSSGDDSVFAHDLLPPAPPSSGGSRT
How it was run: (§2)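 Competition binding of compounds against kinase-tagged T7 phage captured on immobilised biotinylated ligand beads; bead-bound kinase quantified by qPCR of eluates. 11-point 3-fold dilution, 0.9% DMSO final; Kd from Hill fit with slope fixed at −1.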

FGFR1 = biological target: T2, FGFR1 (Homo sapiens, UniProt P11362); experiment: as above; conditions: read-out: FGFR1 (Kd nM)
T2 construct: made in house; host or cells: E. coli (BL21-derived), T7 phage
T2 sequence (P11362 22-822): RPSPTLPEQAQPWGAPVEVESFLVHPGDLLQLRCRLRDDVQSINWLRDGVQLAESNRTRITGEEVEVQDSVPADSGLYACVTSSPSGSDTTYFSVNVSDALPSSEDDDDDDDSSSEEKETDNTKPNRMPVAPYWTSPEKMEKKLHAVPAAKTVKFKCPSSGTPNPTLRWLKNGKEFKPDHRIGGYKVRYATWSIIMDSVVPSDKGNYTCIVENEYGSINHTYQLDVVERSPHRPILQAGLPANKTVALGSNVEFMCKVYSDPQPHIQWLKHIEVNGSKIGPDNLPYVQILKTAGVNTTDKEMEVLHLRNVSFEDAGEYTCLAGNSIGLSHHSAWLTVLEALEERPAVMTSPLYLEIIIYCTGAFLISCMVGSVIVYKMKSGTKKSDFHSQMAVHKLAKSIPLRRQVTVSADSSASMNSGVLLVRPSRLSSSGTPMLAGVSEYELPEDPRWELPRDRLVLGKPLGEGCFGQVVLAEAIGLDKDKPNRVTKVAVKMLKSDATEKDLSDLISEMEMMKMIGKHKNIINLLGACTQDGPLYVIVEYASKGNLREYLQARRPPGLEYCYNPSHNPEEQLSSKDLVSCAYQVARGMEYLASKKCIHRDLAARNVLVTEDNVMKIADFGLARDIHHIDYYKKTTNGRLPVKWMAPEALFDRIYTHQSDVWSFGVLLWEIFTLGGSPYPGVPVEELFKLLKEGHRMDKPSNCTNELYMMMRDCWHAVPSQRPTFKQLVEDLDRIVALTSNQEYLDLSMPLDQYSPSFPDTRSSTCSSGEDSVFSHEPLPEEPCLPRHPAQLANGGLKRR
How it was run: as §2

FGFR4 = biological target: T3, FGFR4 (Homo sapiens, UniProt P22455); experiment: as above; conditions: read-out: FGFR4 (Kd nM)
T3 construct: made in house; host or cells: E. coli (BL21-derived), T7 phage
T3 sequence (P22455 22-802): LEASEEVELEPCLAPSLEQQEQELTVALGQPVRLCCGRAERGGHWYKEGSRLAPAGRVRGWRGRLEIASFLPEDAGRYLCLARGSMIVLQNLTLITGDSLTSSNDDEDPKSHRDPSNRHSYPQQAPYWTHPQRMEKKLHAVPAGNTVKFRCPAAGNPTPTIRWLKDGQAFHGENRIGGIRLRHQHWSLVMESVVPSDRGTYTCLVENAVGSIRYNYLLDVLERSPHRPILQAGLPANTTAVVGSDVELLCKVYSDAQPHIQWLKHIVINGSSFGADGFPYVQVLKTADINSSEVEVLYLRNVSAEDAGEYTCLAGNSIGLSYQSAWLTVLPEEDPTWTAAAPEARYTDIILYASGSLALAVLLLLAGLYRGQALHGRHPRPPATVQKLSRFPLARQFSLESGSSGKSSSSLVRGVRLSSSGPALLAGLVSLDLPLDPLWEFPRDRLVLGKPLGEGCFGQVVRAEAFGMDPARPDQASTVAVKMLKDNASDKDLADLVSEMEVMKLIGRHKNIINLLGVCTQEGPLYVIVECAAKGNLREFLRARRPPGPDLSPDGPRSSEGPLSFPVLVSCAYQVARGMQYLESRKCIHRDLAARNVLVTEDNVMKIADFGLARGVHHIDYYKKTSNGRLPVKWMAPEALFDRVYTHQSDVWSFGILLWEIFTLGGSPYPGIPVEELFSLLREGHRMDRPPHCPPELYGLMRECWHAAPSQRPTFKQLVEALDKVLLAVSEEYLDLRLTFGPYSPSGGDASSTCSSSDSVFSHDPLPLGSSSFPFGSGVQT
How it was run: as §2

FGFR2 = biological target: T4, FGFR2 (Homo sapiens, UniProt P21802); experiment: as above; conditions: read-out: FGFR2 (Kd nM)
T4 construct: made in house; host or cells: E. coli (BL21-derived), T7 phage
T4 sequence (P21802 22-821): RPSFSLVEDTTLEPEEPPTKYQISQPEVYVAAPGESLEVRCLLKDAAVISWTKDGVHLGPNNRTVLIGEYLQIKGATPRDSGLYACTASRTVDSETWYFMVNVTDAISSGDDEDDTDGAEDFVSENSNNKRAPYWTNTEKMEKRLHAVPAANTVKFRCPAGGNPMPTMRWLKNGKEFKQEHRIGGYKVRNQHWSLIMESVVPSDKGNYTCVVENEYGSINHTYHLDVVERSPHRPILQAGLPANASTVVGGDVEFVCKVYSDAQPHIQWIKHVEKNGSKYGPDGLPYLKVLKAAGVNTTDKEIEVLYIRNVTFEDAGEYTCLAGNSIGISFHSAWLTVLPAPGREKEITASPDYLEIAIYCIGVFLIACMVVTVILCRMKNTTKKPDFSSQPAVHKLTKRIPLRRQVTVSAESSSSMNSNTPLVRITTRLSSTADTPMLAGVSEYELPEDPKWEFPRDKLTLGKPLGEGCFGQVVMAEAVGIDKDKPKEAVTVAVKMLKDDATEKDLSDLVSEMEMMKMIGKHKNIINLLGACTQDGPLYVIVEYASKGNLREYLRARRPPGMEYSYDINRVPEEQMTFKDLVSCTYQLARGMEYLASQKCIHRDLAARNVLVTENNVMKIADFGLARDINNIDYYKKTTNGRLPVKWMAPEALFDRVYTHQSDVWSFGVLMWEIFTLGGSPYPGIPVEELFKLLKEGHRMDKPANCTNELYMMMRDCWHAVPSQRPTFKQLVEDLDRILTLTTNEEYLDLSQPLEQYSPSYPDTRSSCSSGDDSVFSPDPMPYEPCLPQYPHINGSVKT
How it was run: as §2

| pIC50 [1] | pIC50 [2] | pIC50 [3] | pIC50 [4] | Kd (FGFR3) [nM] | Kd (FGFR1) [nM] | Kd (FGFR4) [nM] | Kd (FGFR2) [nM] | Compound |
| --- | --- | --- | --- | --- | --- | --- | --- | --- |
| 7.30 to 10.00 | 6.00 to 6.70 | 6.70 to 7.30 | 7.30 to 10.00 | 1 to 50 | 1 to 50 | 1 to 50 | 1 to 50 | COc1cc2[nH]nc(-c3cnc(N4CC(CC#N)(NC(C)C)C4)c(C#N)c3)c2cc1O[C@H](C)c1c(Cl)cncc1Cl [Example 152, (R)-2-(3-(cyanomethyl)-3-(isopropylamino)azetidin-1-yl)-5-(5-(1-(3,5-dichloropyridin-4-yl)ethoxy)-6-methoxy-1H-indazol-3-yl)nicotinonitrile] |
| 7.30 to 10.00 | 6.70 to 7.30 | 7.30 to 10.00 | 7.30 to 10.00 | 1 to 50 | 1 to 50 | 1 to 50 | 1 to 50 | CNC1(CC#N)CN(c2ncc(-c3n[nH]c4cc(OC)c(O[C@H](C)c5c(Cl)cncc5Cl)cc34)cc2C#N)C1 [Example 153, (R)-2-(3-(cyanomethyl)-3-(methylamino)azetidin-1-yl)-5-(5-(1-(3,5-dichloropyridin-4-yl)ethoxy)-6-methoxy-1H-indazol-3-yl)nicotinonitrile] |
| 6.00 to 6.70 | < 6.00 | 6.00 to 6.70 | 6.70 to 7.30 | 1 to 50 | 50 to 300 | 1 to 50 | 50 to 300 | COc1cc2[nH]nc(-c3cnc(N4CC(C)(N(C)CC(C)C)C4)c(C#N)c3)c2cc1O[C@H](C)c1c(Cl)cncc1Cl [Example 343, (R)-5-(5-(1-(3,5-dichloropyridin-4-yl)ethoxy)-6-methoxy-1H-indazol-3-yl)-2-(3-(isobutyl(meth-yl)amino)-3-methylazetidin-1-yl)nicotinonitrile] |
| 7.30 to 10.00 | 6.70 to 7.30 | 7.30 to 10.00 | 7.30 to 10.00 | 1 to 50 | 1 to 50 | 1 to 50 | 1 to 50 | COc1cc2[nH]nc(-c3cnc(N4CC(CC#N)(NCC5CC5)C4)c(C#N)c3)c2cc1O[C@H](C)c1c(Cl)cncc1Cl [Example 346, (R)-2-(3-(cyanomethyl)-3-((cyclo-propylmethyl)-amino)azetidin-1-yl)-5-(5-(1-(3,5-dichloropyridin-4-yl)ethoxy)-6-methoxy-1H-indazol-3-yl)nicotinonitrile] |
| 7.30 to 10.00 | 7.30 to 10.00 | 7.30 to 10.00 | 7.30 to 10.00 | 1 to 50 | 1 to 50 | 1 to 50 | 1 to 50 | CCC1(NC)CN(c2ncc(-c3n[nH]c4cc(OC)c(O[C@H](C)c5c(Cl)cncc5Cl)cc34)cc2C#N)C1 [Example 351, (R)-5-(5-(1-(3,5-Dichloropyridin-4-yl)ethoxy)-6-methoxy-1H-indazol-3-yl)-2-(3-ethyl-3-(methyl-amino)azeti-din-1-yl)nicotinonitrile diHCl] |
| 7.30 to 10.00 | 6.70 to 7.30 | 6.00 to 6.70 | 7.30 to 10.00 | 1 to 50 | 1 to 50 | 1 to 50 | 1 to 50 | COc1cc2[nH]nc(-c3cnc(N4CC(N)(C5CCC5)C4)c(C#N)c3)c2cc1O[C@H](C)c1c(Cl)cncc1Cl [Example 356, (R)-2-(3-amino-3-cyclobutylazetidin-1-yl)-5-(5-(1-(3,5-dichloropyridin-4-yl)ethoxy)-6-methoxy-1H-indazol-3-yl)nicotinonitrile] |
| 7.30 to 10.00 | 6.70 to 7.30 | 6.70 to 7.30 | 6.70 to 7.30 | 1 to 50 | 1 to 50 | 1 to 50 | 1 to 50 | COc1cc2[nH]nc(-c3cnc(N4CC(N)(CC(C)C)C4)c(C#N)c3)c2cc1O[C@H](C)c1c(Cl)cncc1Cl [Example 357, (R)-2-(3-amino-3-isobutylazetidin-1-yl)-5-(5-(1-(3,5-dichloropyridin-4-yl)ethoxy)-6-methoxy-1H-indazol-3-yl)nicotinonitrile] |
| 7.30 to 10.00 | 6.70 to 7.30 | 6.70 to 7.30 | 7.30 to 10.00 | 1 to 50 | 1 to 50 | 1 to 50 | 1 to 50 | CCCC1(N)CN(c2ncc(-c3n[nH]c4cc(OC)c(O[C@H](C)c5c(Cl)cncc5Cl)cc34)cc2C#N)C1 [Example 360, (R)-2-(3-amino-3-propylazetidin-1-yl)-5-(5-(1-(3,5-dichloropyridin-4-yl)ethoxy)-6-methoxy-1H-indazol-3-yl)nicotinonitrile] |

Further lines, the compound ahead of its results:

| Compound | pIC50 [1] | pIC50 [2] | pIC50 [3] | pIC50 [4] | Kd (FGFR3) [nM] | Kd (FGFR1) [nM] | Kd (FGFR4) [nM] | Kd (FGFR2) [nM] |
| --- | --- | --- | --- | --- | --- | --- | --- | --- |
| COc1cc2[nH]nc(-c3cnc(N4CC(C)(N(C)CC5CC5)C4)c(C#N)c3)c2cc1O[C@H](C)c1c(Cl)cncc1Cl [Example 344, (R)-2-(3-((cyclopropyl-methyl) (methyl)amino)-3-methylazetidin-1-yl)-5-(5-(1-(3,5-dichloropyridin-4-yl)ethoxy)-6-methoxy-1H-indazol-3-yl)nicotinonitrile] | 7.30 to 10.00 | 6.00 to 6.70 | 6.70 to 7.30 | 7.30 to 10.00 | 1 to 50 | 1 to 50 | 1 to 50 | 1 to 50 |
| COc1cc2[nH]nc(-c3cnc(N4CC(N)(CC#N)C4)c(C#N)c3)c2cc1O[C@H](C)c1c(Cl)cncc1Cl [Example 345, 2-[3-amino-3-(cyanomethyl)azeti-din-1-yl]-5-[5-[(1R)-1-(3,5-dichloro-4-pyridyl)ethoxy]-6-methoxy-1H-indazol-3-yl]pyridine-3-carbonitrile] | 7.30 to 10.00 | 6.70 to 7.30 | 7.30 to 10.00 | 7.30 to 10.00 | 1 to 50 | 1 to 50 | 1 to 50 | 1 to 50 |
| COc1cc2[nH]nc(-c3cnc(N4CC(CC#N)(N(C)C)C4)c(C#N)c3)c2cc1O[C@H](C)c1c(Cl)cncc1Cl [Example 352, (R)-2-(3-(cyanomethyl)-3-(dimethylamino)-azetidin-1-yl)-5-(5-(1-(3,5-dichloropyridin-4-yl)ethoxy)-6-methoxy-1H-indazol-3-yl)nicotinonitrile] | 7.30 to 10.00 | 7.30 to 10.00 | 7.30 to 10.00 | 7.30 to 10.00 | 1 to 50 | 1 to 50 | 1 to 50 | 1 to 50 |
| COc1cc2[nH]nc(-c3cnc(N4CC(N)(C(C)C)C4)c(C#N)c3)c2cc1O[C@H](C)c1c(Cl)cncc1Cl [Example 353, (R)-2-(3-amino-3-isopropylazetidin-1-yl)-5-(5-(1-(3,5-dichloropyridin-4-yl)ethoxy)-6-methoxy-1H-indazol-3-yl)nicotinonitrile] | 7.30 to 10.00 | 6.70 to 7.30 | 6.70 to 7.30 | 7.30 to 10.00 | 1 to 50 | 1 to 50 | 1 to 50 | 1 to 50 |
| COc1cc2[nH]nc(-c3cnc(N4CC(CC#N)(N5CCCC5)C4)c(C#N)c3)c2cc1O[C@H](C)c1c(Cl)cncc1Cl [Example 354, (R)-2-(3-(cyanomethyl)-3-(pyrrolidin-1-yl)azetidin-1-yl)-5-(5-(1-(3,5-dichloropyridin-4-yl)ethoxy)-6-methoxy-1H-indazol-3-yl)nicotinonitrile] | 7.30 to 10.00 | 6.70 to 7.30 | 7.30 to 10.00 | 7.30 to 10.00 | 1 to 50 | 1 to 50 | 1 to 50 | 1 to 50 |
| COc1cc2[nH]nc(-c3cnc(N4CC(N)(CC5CC5)C4)c(C#N)c3)c2cc1O[C@H](C)c1c(Cl)cncc1Cl [Example 359] | 7.30 to 10.00 | 6.70 to 7.30 | 6.70 to 7.30 | 6.70 to 7.30 | 1 to 50 | 1 to 50 | 1 to 50 | 1 to 50 |
| COc1cc2[nH]nc(-c3cnc(N4CC(N)(CC(C)(C)O)C4)c(C#N)c3)c2cc1O[C@H](C)c1c(Cl)cncc1Cl [Example 361, (R)-2-(3-amino-3-(2-hydroxy-2-methylpropyl)azetidin-1-yl)-5-(5-(1-(3,5-dichloropyridin-4-yl)ethoxy)-6-methoxy-1H-indazol-3-yl)nicotinonitrile] | 6.70 to 7.30 | 6.00 to 6.70 | 6.70 to 7.30 | 6.70 to 7.30 | 1 to 50 | 1 to 50 | 1 to 50 | 1 to 50 |
| C=CCC1(N)CN(c2ncc(-c3n[nH]c4cc(OC)c(O[C@H](C)c5c(Cl)cncc5Cl)cc34)cc2C#N)C1 [Example 362, (R)-2-(3-ally1-3-aminoazetidin-1-yl)-5-(5-(1-(3,5-dichloropyridin-4-yl)ethoxy)-6-methoxy-1H-indazol-3-yl)nicotinonitrile] | 7.30 to 10.00 | 6.70 to 7.30 | 6.70 to 7.30 | 7.30 to 10.00 | 1 to 50 | 1 to 50 | 1 to 50 | 1 to 50 |
